Laboratory results from US20060069132A1, “Azolecarboxamide herbicides” (priority 2004, published 2006).

Assays:
barnyardgrass [1] = test: Test B pre-/postemergence herbicide test; type: in vivo, Echinochloa crus-galli; conditions: for Barnyardgrass plant response rating: postemergence, visual rating, scale 0 (no effect) to 100 (complete control)
Procedure, shortened: (§1)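 Plants compared with untreated controls 13–15 days post-treatment and given a visual 0–100 injury score. Applications: preemergence to seeds; postemergence at 1- to 4-leaf (2–18 cm); paddy species flooded, 2-leaf stage. Vehicle non-phytotoxic, surfactant included.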

Surinam grass = test: Test B pre-/postemergence herbicide test; type: in vivo, Urochloa decumbens; conditions: for Surinam Grass plant response rating: postemergence, visual rating, scale 0 (no effect) to 100 (complete control)
Procedure, shortened: (§2)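 Herbicidal effect was judged by eye on a 0–100 scale after plants stood 13 to 15 days in the greenhouse following pre- or postemergence treatment with surfactant-containing formulations.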

cocklebur = test: Test B pre-/postemergence herbicide test; type: in vivo, Xanthium strumarium; conditions: for Cocklebur plant response rating: postemergence, visual rating, scale 0 (no effect) to 100 (complete control)
Procedure, shortened: as §1

corn = test: Test B pre-/postemergence herbicide test; type: in vivo, Zea mays; conditions: for Corn plant response rating: postemergence, visual rating, scale 0 (no effect) to 100 (complete control)
Procedure, shortened: as §2

large crabgrass = test: Test B pre-/postemergence herbicide test; type: in vivo, Digitaria sanguinalis; conditions: for Crabgrass, Large plant response rating: postemergence, visual rating, scale 0 (no effect) to 100 (complete control)
Procedure, shortened: as §2

giant foxtail = test: Test B pre-/postemergence herbicide test; type: in vivo, Setaria faberi; conditions: for Foxtail, Giant plant response rating: postemergence, visual rating, scale 0 (no effect) to 100 (complete control)
Procedure, shortened: as §2

lambsquarters = test: Test B pre-/postemergence herbicide test; type: in vivo, Chenopodium album; conditions: for Lambsquarters plant response rating: postemergence, visual rating, scale 0 (no effect) to 100 (complete control)
Procedure, shortened: as §2

morningglory = test: Test B pre-/postemergence herbicide test; type: in vivo, Ipomoea coccinea; conditions: for Morningglory plant response rating: postemergence, visual rating, scale 0 (no effect) to 100 (complete control)
Procedure, shortened: as §1

pigweed = test: Test B pre-/postemergence herbicide test; type: in vivo, Amaranthus retroflexus; conditions: for Pigweed plant response rating: postemergence, visual rating, scale 0 (no effect) to 100 (complete control)
Procedure, shortened: as §2

rice [2] = test: Test B pre-/postemergence herbicide test; type: in vivo, Oryza sativa; conditions: preemergence
Procedure, shortened: as §2

velvetleaf = test: Test B pre-/postemergence herbicide test; type: in vivo, Abutilon theophrasti; conditions: for Velvetleaf plant response rating: postemergence, visual rating, scale 0 (no effect) to 100 (complete control)
Procedure, shortened: as §2

blackgrass = test: Test B postemergence herbicide test; type: in vivo, Alopecurus myosuroides; conditions: postemergence, visual rating, scale 0 (no effect) to 100 (complete control)
Procedure, shortened: (§3)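 Formulated test chemicals went onto postemergence plants measuring 2 to 18 cm, at one to four leaves. For the paddy assay, species had reached two leaves. Scoring took place 13–15 days later by eye, relative to untreated plants, using 0 for no effect up to 100 for full control.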

wheat = test: Test B postemergence herbicide test; type: in vivo, Triticum aestivum; parameters: key to Wheat plant response rating: 0 = no effect, 100 = complete control; conditions: postemergence, visual rating, scale 0 (no effect) to 100 (complete control)
Procedure, shortened: (§4)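 Treated at 2-leaf (paddy) or 1–4-leaf, 2–18 cm (postemergence); greenhouse 13–15 d; visual score vs control, 0 none to 100 complete control; dash = not tested.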

wild oat = test: Test B postemergence herbicide test; type: in vivo, Avena fatua; conditions: postemergence, visual rating, scale 0 (no effect) to 100 (complete control)
Procedure, shortened: as §4

rice [3] = test: Test B flooded paddy test; type: in vivo, Oryza sativa; conditions: 1000 g ai/ha, visual rating, scale 0 to 100 (0 no effect, 100 complete control), 13 to 15 days
Procedure, shortened: as §4

[4] = system: small flower umbrella sedge; test: Test B flooded paddy test; type: in vivo, Cyperus difformis; conditions: 1000 g ai/ha, visual rating, scale 0 to 100 (0 no effect, 100 complete control), 13 to 15 days
Procedure, shortened: as §3

ducksalad [5] = test: Test B flooded paddy test; type: in vivo, Heteranthera limosa; conditions: 1000 g ai/ha, visual rating, scale 0 to 100 (0 no effect, 100 complete control), 13 to 15 days
Procedure, shortened: as §3

barnyardgrass [6] = test: Test B flooded paddy test; type: in vivo, Echinochloa crus-galli; conditions: 1000 g ai/ha, visual rating, scale 0 to 100 (0 no effect, 100 complete control), 13 to 15 days
Procedure, shortened: as §3

rice [7] = test: Test C flooded paddy test; type: in vivo, Oryza sativa
Procedure, shortened: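 Injury scored visually against controls on a 0 (no effect) to 100 (complete control) scale, 12 to 14 days after treatment in greenhouse. Flooded paddy plants treated at 2-leaf stage; postemergence plants at 1- to 4-leaf stage, 2 to 18 cm tall.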

[8] = system: smallflower umbrella sedge; test: Test C flooded paddy test; type: in vivo, Cyperus difformis
ducksalad [9] = test: Test C flooded paddy test; type: in vivo, Heteranthera limosa
barnyardgrass [10] = test: Test C flooded paddy test; type: in vivo, Echinochloa crus-galli
Procedure, shortened: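 After a postemergence application at 1 to 4 leaves (plants 2–18 cm high), or at 2 leaves for barnyardgrass in flooded paddy, plants stayed in the greenhouse for 12 to 14 days. Damage was then judged visually relative to control plants, with 100 indicating complete control.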

[11] = 125 g ai/ha, 0 = no effect, 100 = complete control, preemergence
[12] = 500 g ai/ha, visual rating 0-100, 0 no effect, 100 complete control, preemergence
[13] = 62 g ai/ha, scale 0 to 100 (0 no effect, 100 complete control)
[14] = 125 g ai/ha, scale 0 to 100 (0 no effect, 100 complete control)
[15] = 250 g ai/ha, scale of 0 to 100, 0 is no effect, 100 is complete control
[16] = 500 g ai/ha, visual rating after 12 to 14 days, scale 0 to 100 (0 no effect, 100 complete control)

## CCOC(=O)c1cccc(NC(=O)c2cn(C(C)(C)C)nc2CC)c1 [Compound 186]
Barnyardgrass [1]; [11]
  Barnyardgrass plant response rating (0 to 100 scale): 0
Barnyardgrass [1]; [12]
  Plant response rating, Barnyardgrass: 10
Barnyardgrass [1]; 125 g ai/ha
  Barnyardgrass plant response rating: 10
Barnyardgrass [1]; 500 g ai/ha
  Barnyardgrass plant response rating: 50
Surinam grass; [11]
  Surinam Grass plant response rating (0 to 100 scale): 0
Surinam grass; [12]
  Plant response rating, Surinam Grass: 10
Surinam grass; 125 g ai/ha
  Surinam Grass plant response rating: 10
Surinam grass; 500 g ai/ha
  Surinam Grass plant response rating: 30
cocklebur; [11]
  Cocklebur plant response rating (0 to 100 scale): 0
cocklebur; [12]
  Plant response rating, Cocklebur: 0
cocklebur; 125 g ai/ha
  Cocklebur plant response rating: 60
cocklebur; 500 g ai/ha
  Cocklebur plant response rating: 90
corn; [11]
  Corn plant response rating (0 to 100 scale): 0
corn; [12]
  Plant response rating, Corn: 10
corn; 125 g ai/ha
  Corn plant response rating: 20
corn; 500 g ai/ha
  Corn plant response rating: 20
Large crabgrass; [11]
  Crabgrass, Large plant response rating (0 to 100 scale): 0
Large crabgrass; [12]
  Plant response rating, Crabgrass, Large: 10
Large crabgrass; 125 g ai/ha
  Crabgrass, Large plant response rating: 10
Large crabgrass; 500 g ai/ha
  Crabgrass, Large plant response rating: 10
Giant foxtail; [11]
  Foxtail, Giant plant response rating (0 to 100 scale): 0
Giant foxtail; [12]
  Plant response rating, Foxtail, Giant: 10
Giant foxtail; 125 g ai/ha
  Foxtail, Giant plant response rating: 10
Giant foxtail; 500 g ai/ha
  Foxtail, Giant plant response rating: 20
lambsquarters; [11]
  Lambsquarters plant response rating (0 to 100 scale): 0
lambsquarters; [12]
  Plant response rating, Lambsquarters: 0
lambsquarters; 125 g ai/ha
  Lambsquarters plant response rating: 10
lambsquarters; 500 g ai/ha
  Lambsquarters plant response rating: 30
morningglory; [11]
  Morningglory plant response rating (0 to 100 scale): 0
morningglory; [12]
  Plant response rating, Morningglory: 0
morningglory; 125 g ai/ha
  Morningglory plant response rating: 20
morningglory; 500 g ai/ha
  Morningglory plant response rating: 30
pigweed; [11]
  Pigweed plant response rating (0 to 100 scale): 0
pigweed; [12]
  Plant response rating, Pigweed: 0
pigweed; 125 g ai/ha
  Pigweed plant response rating: 60
pigweed; 500 g ai/ha
  Pigweed plant response rating: 60
Rice [2]; 125 g ai/ha, 0 = no effect, 100 = complete control
  Rice plant response rating (0 to 100 scale): 0
Rice [2]; 500 g ai/ha, visual rating 0-100, 0 no effect, 100 complete control
  Plant response rating, Rice: 20
velvetleaf; [11]
  Velvetleaf plant response rating (0 to 100 scale): 10
velvetleaf; [12]
  Plant response rating, Velvetleaf: 20
velvetleaf; 125 g ai/ha
  Velvetleaf plant response rating: 60
velvetleaf; 500 g ai/ha
  Velvetleaf plant response rating: 60
blackgrass; 125 g ai/ha
  Blackgrass plant response rating: 10
blackgrass; 500 g ai/ha
  Blackgrass plant response rating: 30
wheat; 125 g ai/ha
  Wheat plant response rating: 10
wheat; 500 g ai/ha
  Wheat plant response rating: 20
Wild oat; 125 g ai/ha
  Oat, Wild plant response rating: 10
Wild oat; 500 g ai/ha
  Oat, Wild plant response rating: 20
Rice [3]
  Rice plant response rating: 30
[4]
  Sedge, Umbrella plant response rating: 90
Ducksalad [5]
  Ducksalad plant response rating: 90
Barnyardgrass [6]
  Barnyardgrass plant response rating: 30
Rice [7]; [13]
  Rice plant response rating: 40
Rice [7]; [14]
  Rice plant response rating: 55
Rice [7]; [15]
  Rice plant response rating: 60
Rice [7]; [16]
  Plant response rating, Rice: 65
[8]; [13]
  Sedge, Umbrella plant response rating: 80
[8]; [14]
  Sedge, Umbrella plant response rating: 80
[8]; [15]
  Sedge, Umbrella plant response rating: 80
[8]; [16]
  Plant response rating, Sedge, Umbrella: 85
Ducksalad [9]; [13]
  Ducksalad plant response rating: 15
Ducksalad [9]; [14]
  Ducksalad plant response rating: 40
Ducksalad [9]; [15]
  Ducksalad plant response rating: 65
Ducksalad [9]; [16]
  Plant response rating, Ducksalad: 80
Barnyardgrass [10]; [13]
  Barnyardgrass plant response rating: 20
Barnyardgrass [10]; 125 g ai/ha, scale of 0 to 100, 0 is no effect, 100 is complete control
  Barnyardgrass plant response rating: 30
Barnyardgrass [10]; [15]
  Barnyardgrass plant response rating: 45
Barnyardgrass [10]; [16]
  Plant response rating, Barnyardgrass: 70
